Laboratory results as given in patent US20220089592A1, “IMIDAZO[1,2-A]PYRIDINYL DERIVATIVES AS IRAK4 INHIBITORS” (priority 2019, published 2022).
pIC50: −log10 of the molar value. Counter-ions that a name gives are not always drawn. Like-named read-outs stand apart in the source and are kept apart here.

Target: T1, IRAK4 (Homo sapiens, UniProt Q9NWZ3)
T1 sequence (Q9NWZ3 1-460): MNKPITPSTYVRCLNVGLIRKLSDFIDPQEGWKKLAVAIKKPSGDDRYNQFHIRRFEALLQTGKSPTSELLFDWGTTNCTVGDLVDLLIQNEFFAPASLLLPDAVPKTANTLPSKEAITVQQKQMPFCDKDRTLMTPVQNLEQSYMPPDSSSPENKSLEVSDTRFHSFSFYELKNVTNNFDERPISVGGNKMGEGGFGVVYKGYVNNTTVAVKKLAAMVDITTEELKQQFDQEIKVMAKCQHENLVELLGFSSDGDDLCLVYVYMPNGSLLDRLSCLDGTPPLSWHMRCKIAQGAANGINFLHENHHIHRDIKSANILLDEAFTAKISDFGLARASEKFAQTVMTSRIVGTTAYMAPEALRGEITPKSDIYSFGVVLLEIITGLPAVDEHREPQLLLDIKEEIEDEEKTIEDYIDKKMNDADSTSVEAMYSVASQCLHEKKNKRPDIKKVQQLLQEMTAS
Experiment: 2-hour 1 mM ATP IRAK4 Biochemical assay (as above, but with 100 pM IRAK4 and 1 mM ATP)
Details: for IC50: IRAK4 MSD BIOCHEMICAL (1 mM ATP) IC50 (μM), 100 pM IRAK4, 2 hours
Outline: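 Run with 100 pM IRAK4 and 1 mM ATP for 2 hours, quenched with EDTA pH 8. Phosphorylated biotinylated peptide captured on streptavidin MSD plates and detected with anti-phosphothreonine antibody plus Sulfo-Tag secondary by electrochemiluminescence.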

Compound: CCOc1nc2nc(C3CCOCC3)cn2cc1NC(=O)c1ccc2c(n1)CCC2 [Example 570, N-(7-ethoxy-2-(tetrahydro-2H-pyran-4-yl)imidazo[1,2-a]pyrimidin-6-yl)-6,7-dihydro-5H-cyclopenta[b]pyridine-2-carboxamide hydrochloride]
- IC50: 0.005 µM

Compound: CC12CC(c3cn4cc(NC(=O)c5cccc(C(F)F)n5)ccc4n3)(CO1)C2 [Example 357, 6-(difluoromethyl)-N-(2-(1-methyl-2-oxabicyclo[2.1.1]hexan-4-yl)imidazo[1,2-a]pyridin-6-yl)picolinamide]
- IC50: 0.03 µM

Compound: CCOc1cc2nc(C(C)(C)O)c(Cl)n2cc1NC(=O)c1cccc(C(F)F)n1 [Example 354, N-(3-chloro-7-ethoxy-2-(2-hydroxypropan-2-yl)imidazo[1,2-a]pyridin-6-yl)-6-(difluoromethyl)picolinamide]
- IC50: 0.438 µM

Compound: COc1nc(NC(=O)c2cccc3c2OCC3(F)F)cn2cc(C34COC(C)(C3)C4)nc12 [Example 446, 3,3-difluoro-N-(8-methoxy-2-(1-methyl-2-oxabicyclo[2.1.1]hexan-4-yl)imidazo[1,2-a]pyrazin-6-yl)-2,3-dihydrobenzofuran-7-carboxamide]
- IC50: 0.008 µM

Compound: CCOc1cc2nc(CCCOC)cn2cc1NC(=O)c1cccc(C(F)F)n1 [Example 12, 6-(difluoromethyl)-N-(7-ethoxy-2-(3-methoxypropyl)imidazo[1,2-a]pyridin-6-yl)picolinamide]
- IC50: 0.001 µM

Compound: CCn1ccc(C(=O)Nc2cn3cc(C4CCOCC4)nc3c(OC)n2)n1 [Example 463, 1-ethyl-N-(8-methoxy-2-(tetrahydro-2H-pyran-4-yl)imidazo[1,2-a]pyrazin-6-yl)-1H-pyrazole-3-carboxamide 2,2,2-trifluoroacetate]
- IC50: 0.104 µM

Compound: COc1ncccc1C(=O)Nc1cn2cc(C34COC(C)(C3)C4)nc2cc1OC(C)C(F)(F)F (single isomer, unassigned) [Example 318, 2-methoxy-N-(2-(1-methyl-2-oxabicyclo[2.1.1]hexan-4-yl)-7-((1,1,1-trifluoropropan-2-yl)oxy)imidazo[1,2-a]pyridin-6-yl)nicotinamide]
- IC50: 0.005 µM

Compound: CC(C)Oc1cc2nc(C3CCOCC3)c(Cl)n2cc1NC(=O)c1cccc(C(F)F)n1 [Example 353, N-(3-chloro-7-isopropoxy-2-(tetrahydro-2H-pyran-4-yl)imidazo[1,2-a]pyridin-6-yl)-6-(difluoromethyl)picolinamide]
- IC50: 0.011 µM

Compound: O=C(Nc1cc(OC(F)F)c2nc(C3CCOCC3)cn2c1)c1cccc(C(F)F)n1 [Example 307, N-(8-(difluoromethoxy)-2-(tetrahydro-2H-pyran-4-yl)imidazo[1,2-a]pyridin-6-yl)-6-(difluoromethyl)picolinamide]
- IC50: 0.015 µM

Compound: COc1ccccc1C(=O)Nc1cn2cc(C34COC(C)(C3)C4)nc2c(OC)n1 [Example 443, 2-methoxy-N-(8-methoxy-2-(1-methyl-2-oxabicyclo[2.1.1]hexan-4-yl)imidazo[1,2-a]pyrazin-6-yl)benzamide]
- IC50: 0.023 µM

Compound: CC(C)Oc1nc2nc(C3C4COCC43)cn2cc1NC(=O)c1ccn(CC(F)F)n1 (centres unmarked) [Example 503, N-(2-(3-oxabicyclo[3.1.0]hexan-6-yl)-7-isopropoxyimidazo[1,2-a]pyrimidin-6-yl)-1-(2,2-difluoroethyl)-1H-pyrazole-3-carboxamide]
- IC50: 0.002 µM

Compound: CC(C)Oc1nc2nc(C34COC(C)(C3)C4)cn2cc1NC(=O)c1csc(C(F)(F)F)n1 [Example 499, N-(7-isopropoxy-2-(1-methyl-2-oxabicyclo[2.1.1]hexan-4-yl)imidazo[1,2-a]pyrimidin-6-yl)-2-(trifluoromethyl)thiazole-4-carboxamide]
- IC50: 0.001 µM

Compound: CC(C)Cc1cc2nc(C3CCOCC3)cn2cc1NC(=O)c1cccc(C(F)F)n1 [Example 404, 6-(difluoromethyl)-N-(7-isobutyl-2-(tetrahydro-2H-pyran-4-yl)imidazo[1,2-a]pyridin-6-yl)picolinamide]
- IC50: 0.004 µM

Compound: CC12CC(c3cn4cc(NC(=O)c5cccc(C(F)F)n5)nc(OCc5ccccc5)c4n3)(CO1)C2 [Example 199, N-(8-(benzyloxy)-2-(1-methyl-2-oxabicyclo[2.1.1]hexan-4-yl)imidazo[1,2-a]pyrazin-6-yl)-6-(difluoromethyl)picolinamide]
- IC50: 0.016 µM

Compound: COc1nc(NC(=O)c2cccc(C(F)F)n2)cn2cc(C3CCCOC3)nc12 (single isomer, unassigned) [Example 298, 6-(difluoromethyl)-N-(8-methoxy-2-(tetrahydro-2H-pyran-3-yl)imidazo[1,2-a]pyrazin-6-yl)picolinamide]
- pIC50 (read-out: IRAK4 MSD BIOCHEMICAL (1 mM ATP) IC50, 100 pM IRAK4, 2 hours): 8.40

Compound: COc1ncccc1C(=O)Nc1cn2cc(C34COC(C)(C3)C4)nc2c(F)c1OC(C)C [Example 428, N-(8-fluoro-7-isopropoxy-2-(1-methyl-2-oxabicyclo[2.1.1]hexan-4-yl)imidazo[1,2-a]pyridin-6-yl)-2-methoxynicotinamide]
- IC50: 0.01 µM

Compound: COc1nc2nc(C34COC(C)(C3)C4)cn2cc1NC(=O)c1cccc(C(F)F)n1 [Example 567, 6-(difluoromethyl)-N-(7-methoxy-2-(1-methyl-2-oxabicyclo[2.1.1]hexan-4-yl)imidazo[1,2-a]pyrimidin-6-yl)picolinamide 2,2,2-trifluoroacetate]
- IC50: 0.008 µM

Compound: CC(Oc1cc2nc(C34COC(C)(C3)C4)cn2cc1NC(=O)c1ccn(C)n1)C(F)(F)F (centres unmarked) [Example 399, 1-methyl-N-(2-(1-methyl-2-oxabicyclo[2.1.1]hexan-4-yl)-7-((1,1,1-trifluoropropan-2-yl)oxy)imidazo[1,2-a]pyridin-6-yl)-1H-pyrazole-3-carboxamide 2,2,2-trifluoracetate]
- IC50: 0.001 µM

Compound: CCC(C)Oc1c(NC(=O)c2cccnc2OC)cn2cc(C34COC(C)(C3)C4)nc2c1F (centres unmarked) [Example 326, N-(7-(sec-butoxy)-8-fluoro-2-(1-methyl-2-oxabicyclo[2.1.1]hexan-4-yl)imidazo[1,2-a]pyridin-6-yl)-2-methoxynicotinamide]
- IC50: 0.012 µM

Compound: COc1nc(NC(=O)c2cccc(C(F)F)n2)cn2cc(C3CC34CCOCC4)nc12 (centres unmarked) [Example 558, 6-(difluoromethyl)-N-(8-methoxy-2-(6-oxaspiro[2.5]octan-1-yl)imidazo[1,2-a]pyrazin-6-yl)picolinamide 2,2,2-trifluoroacetate]
- IC50: 0.044 µM

Compound: CC(C)Oc1c(NC(=O)c2coc(C3CC3)n2)cn2cc(C34COC(C)(C3)C4)nc2c1F [Example 431, 2-cyclopropyl-N-(8-fluoro-7-isopropoxy-2-(1-methyl-2-oxabicyclo[2.1.1]hexan-4-yl)imidazo[1,2-a]pyridin-6-yl)oxazole-4-carboxamide]
- IC50: 0.001 µM

Compound: COc1ccccc1C(=O)Nc1cn2cc(Cl)nc2cc1OC(C)C [Example 400, N-(2-chloro-7-isopropoxyimidazo[1,2-a]pyridin-6-yl)-2-methoxybenzamide 2,2,2-trifluoroacetate]
- IC50: 0.054 µM

Compound: COc1cc2nc(C34COC(C)(C3)C4)cn2cc1NC(=O)c1cccc(C(F)(F)F)n1 [Example 309, N-(7-methoxy-2-(1-methyl-2-oxabicyclo[2.1.1]hexan-4-yl)imidazo[1,2-a]pyridin-6-yl)-6-(trifluoromethyl)picolinamide]
- IC50: 0.001 µM

Compound: COc1ccccc1C(=O)Nc1cn2cc(C3CCOCC3)nc2c(OC)n1 [Example 457, 2-methoxy-N-(8-methoxy-2-(tetrahydro-2H-pyran-4-yl)imidazo[1,2-a]pyrazin-6-yl)benzamide 2,2,2-trifluoroacetate]
- IC50: 0.096 µM

Compound: COc1cccc(C(=O)Nc2cn3cc(C45COC(C)(C4)C5)nc3c(F)c2OC(C)C)n1 [Example 426, N-(8-fluoro-7-isopropoxy-2-(1-methyl-2-oxabicyclo[2.1.1]hexan-4-yl)imidazo[1,2-a]pyridin-6-yl)-6-methoxypicolinamide]
- IC50: 0.002 µM

Compound: COc1ccccc1C(=O)Nc1cn2cc(C34COC(C)(C3)C4)nc2nc1OC(C)C [Example 488, N-(7-isopropoxy-2-(1-methyl-2-oxabicyclo[2.1.1]hexan-4-yl)imidazo[1,2-a]pyrimidin-6-yl)-2-methoxybenzamide]
- IC50: 0.002 µM

Compound: CC(C)Oc1cc2nc(-c3cn(C)nc3C(F)F)cn2cc1NC(=O)c1cccc(C(F)F)n1 [Example 264, 6-(difluoromethyl)-N-(2-(3-(difluoromethyl)-1-methyl-1H-pyrazol-4-yl)-7-isopropoxyimidazo[1,2-a]pyridin-6-yl)picolinamide]
- IC50: 0.002 µM

Compound: COc1nc(NC(=O)c2cccc(C(F)F)n2)cn2cc(C3CCCOC3)nc12 (single isomer, unassigned) [Example 297, 6-(difluoromethyl)-N-(8-methoxy-2-(tetrahydro-2H-pyran-3-yl)imidazo[1,2-a]pyrazin-6-yl)picolinamide]
- IC50: 0.004 µM

Compound: CC(C)Oc1nc2nc(C34COC(C)(C3)C4)c(Cl)n2cc1NC(=O)c1cccc(C(F)F)n1 [Example 576, N-(3-chloro-7-isopropoxy-2-(1-methyl-2-oxabicyclo[2.1.1]hexan-4-yl)imidazo[1,2-a]pyrimidine-6-yl)-6-(difluoromethyl)picolinamide 2,2,2-trifluoroacetate]
- IC50: 0.199 µM
